Assay results published in patent US20200199102A1, “COMPOUNDS THAT PARTICIPATE IN COOPERATIVE BINDING AND USES THEREOF” (Revolution Medicines, Inc., priority 2017, published 2020).
Where a SMILES comes first, the peptide text is derived from it. [ ]: non-standard residue; d: D form. MeBmt = C/C=C/C[C@@H](C)[C@@H](O)[C@H](NC)C(=O)O; NMeY = CN[C@@H](Cc1ccc(O)cc1)C(=O)O; NMeF = CN[C@@H](Cc1ccccc1)C(=O)O; NMeI = CC[C@H](C)[C@H](NC)C(=O)O; NMeT = CN[C@H](C(=O)O)[C@@H](C)O; NMeL = CN[C@@H](CC(C)C)C(=O)O; NMeV = CN[C@H](C(=O)O)C(C)C; NMeA = CN[C@@H](C)C(=O)O; dNMeA = CN[C@H](C)C(=O)O; Abu = CC[C@H](N)C(=O)O; Sar = CNCC(=O)O

Target: T1, Cyclophilin A (Homo sapiens, UniProt P62937)
T1 construct: made in house
T1 sequence (P62937 whole entry, species assumed): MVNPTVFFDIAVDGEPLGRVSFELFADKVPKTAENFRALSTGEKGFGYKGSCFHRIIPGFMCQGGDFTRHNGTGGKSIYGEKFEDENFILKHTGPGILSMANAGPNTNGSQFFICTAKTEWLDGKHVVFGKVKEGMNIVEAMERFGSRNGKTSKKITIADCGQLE
Assay: AlphaLISA inhibition of binding of biotinylated Cyclosporin A to FLAG tagged Cyclophilin A
Conditions: for % signal: AlphaLISA signal; for % signal / % inhibition of CsA binding to Cyclophilin A: test concentration not given; for IC50: read-out: IC50 value of CsA binding to Cyclophilin A
Description: The binding of compounds of the invention to Cyclophilin A can be determined using the following protocol.
This protocol utilizes Perkin Elmers AlphaLISA technology platform to detect cyclosporine analogues by measuring the inhibition of binding of biotinylated Cyclosporin A to FLAG tagged Cyclophilin A.
10×TBST Buffer (Boston BioProducts IBB-181), Biotinylated Cyclosporin A (in-house), FLAG tagged Cyclophilin A (in-house); anti-FLAG Donor beads (PerkinElmer AS103) and Streptavidin Acceptor beads (PerkinElmer AL125); Compounds in DMSO (in-house), Cyclosporin A (LC Labs Cat #C-6000).
Add 20 uL of 6 nM Biotinylated CsA working stock to each well of the 96-well plate. Add 1 uL of test compound (100% DMSO) to each well of the plate using the Janus MTD head and P20 tips (except control wells). Add 1 uL of DMSO to negative control wells and 1 uL of 500 uM Cyclosporin A solution to positive control wells. In the dark, add 20 uL of combined Donor/Acceptor beads to each well. Incubate in the dark for 30 minutes at room temperature. In the dark, add 10 uL of 25 nM Flag tagged CypA working stock to each well. Incubate in the dark for 60 minutes at room temperature. Protect plate from light until reading on Biotek Synergy2 Plate Reader; Alphalisa 96-well protocol (680 excitation/615 emission).

Structure (SMILES)	% signal	IC50	% inhibition of CsA binding to Cyclophilin A
C/C=C/C[C@@H](C)[C@@H](O)[C@H]1C(=O)N[C@@H](CC)C(=O)N(C)CC(=O)N(C)[C@@H]([C@@H](C)CC)C(=O)N[C@@H](C(C)C)C(=O)N(C)[C@@H](C)C(=O)N[C@@H](C)C(=O)N[C@H](C)C(=O)N(C)[C@@H](CC(C)C)C(=O)N(C)[C@@H](CC(C)C)C(=O)N(C)[C@@H](C(C)C)C(=O)N1C [Compound C1] (cyclo([MeBmt][Abu][Sar][NMeI]V[NMeA]A[dA][NMeL][NMeL][NMeV]))	0.56%	< 2000 nM	99.44%
C/C=C/C[C@@H](C)[C@@H](O)[C@H]1C(=O)N[C@@H](CC)C(=O)N(C)CC(=O)N(C)[C@@H](C)C(=O)N[C@@H](C(C)C)C(=O)N(C)[C@@H](C)C(=O)N[C@@H](C)C(=O)N[C@H](C)C(=O)N(C)[C@@H](CC(C)C)C(=O)N(C)[C@@H](CC(C)C)C(=O)N(C)[C@@H](C(C)C)C(=O)N1C [Compound C2] (cyclo([MeBmt][Abu][Sar][NMeA]V[NMeA]A[dA][NMeL][NMeL][NMeV]))	5.25%	< 2000 nM	94.75%
C/C=C/C[C@@H](C)[C@@H](O)[C@H]1C(=O)N[C@@H](CC)C(=O)N(C)CC(=O)N(C)[C@H](C)C(=O)N[C@@H](C(C)C)C(=O)N(C)[C@@H](C)C(=O)N[C@@H](C)C(=O)N[C@H](C)C(=O)N(C)[C@@H](CC(C)C)C(=O)N(C)[C@@H](CC(C)C)C(=O)N(C)[C@@H](C(C)C)C(=O)N1C [Compound C3] (cyclo([MeBmt][Abu][Sar][dNMeA]V[NMeA]A[dA][NMeL][NMeL][NMeV]))	13.43%	< 2000 nM	86.57%
C/C=C/C[C@@H](C)[C@@H](O)[C@H]1C(=O)N[C@@H](CC)C(=O)N(C)CC(=O)N(C)[C@@H](Cc2ccccc2)C(=O)N[C@@H](C(C)C)C(=O)N(C)[C@@H](C)C(=O)N[C@@H](C)C(=O)N[C@H](C)C(=O)N(C)[C@@H](CC(C)C)C(=O)N(C)[C@@H](CC(C)C)C(=O)N(C)[C@@H](C(C)C)C(=O)N1C [Compound C4] (cyclo([MeBmt][Abu][Sar][NMeF]V[NMeA]A[dA][NMeL][NMeL][NMeV]))	4.12%	< 2000 nM	95.88%
C/C=C/C[C@@H](C)[C@@H](O)[C@H]1C(=O)N[C@@H](CC)C(=O)N(C)CC(=O)N(C)CC(=O)N[C@@H](C(C)C)C(=O)N(C)[C@@H](C)C(=O)N[C@@H](C)C(=O)N[C@H](C)C(=O)N(C)[C@@H](CC(C)C)C(=O)N(C)[C@@H](CC(C)C)C(=O)N(C)[C@@H](C(C)C)C(=O)N1C [Compound C5] (cyclo([MeBmt][Abu][Sar][Sar]V[NMeA]A[dA][NMeL][NMeL][NMeV]))	9.09%	< 2000 nM	90.91%
C/C=C/C[C@@H](C)[C@@H](O)[C@H]1C(=O)N[C@@H](CC)C(=O)N(C)CC(=O)N(C)[C@@H](CC(C)C)C(=O)N[C@@H](C(C)C)C(=O)N(C)[C@@H](C)C(=O)N[C@@H](C)C(=O)N[C@H](C)C(=O)N(C)[C@@H](CC(C)C)C(=O)N(C)[C@@H](CC(C)C)C(=O)N(C)[C@@H](C(C)C)C(=O)N1C [Compound C6]	7.29%	< 2000 nM	92.71%
C/C=C/C[C@@H](C)[C@@H](O)[C@H]1C(=O)N[C@@H](CC)C(=O)N(C)CC(=O)N(C)[C@@H]([C@@H](C)O)C(=O)N[C@@H](C(C)C)C(=O)N(C)[C@@H](C)C(=O)N[C@@H](C)C(=O)N[C@H](C)C(=O)N(C)[C@@H](CC(C)C)C(=O)N(C)[C@@H](CC(C)C)C(=O)N(C)[C@@H](C(C)C)C(=O)N1C [Compound C7] (cyclo([MeBmt][Abu][Sar][NMeT]V[NMeA]A[dA][NMeL][NMeL][NMeV]))	2.65%	< 2000 nM	97.35%
C/C=C/C[C@@H](C)[C@@H](O)[C@H]1C(=O)N[C@@H](CC)C(=O)N(C)CC(=O)N(C)[C@@H]([C@@H](C)CC)C(=O)N[C@@H](CC(C)C)C(=O)N(C)[C@@H](C)C(=O)N[C@@H](C)C(=O)N[C@H](C)C(=O)N(C)[C@@H](CC(C)C)C(=O)N(C)[C@@H](CC(C)C)C(=O)N(C)[C@@H](C(C)C)C(=O)N1C [Compound C9] (cyclo([MeBmt][Abu][Sar][NMeI]L[NMeA]A[dA][NMeL][NMeL][NMeV]))	0.11%	< 2000 nM	99.89%
C/C=C/C[C@@H](C)[C@@H](O)[C@H]1C(=O)N[C@@H](CC)C(=O)N(C)CC(=O)N(C)[C@@H](C)C(=O)N[C@@H](CC(C)C)C(=O)N(C)[C@@H](C)C(=O)N[C@@H](C)C(=O)N[C@H](C)C(=O)N(C)[C@@H](CC(C)C)C(=O)N(C)[C@@H](CC(C)C)C(=O)N(C)[C@@H](C(C)C)C(=O)N1C [Compound C10] (cyclo([MeBmt][Abu][Sar][NMeA]L[NMeA]A[dA][NMeL][NMeL][NMeV]))	0.56%	< 2000 nM	99.44%
C/C=C/C[C@@H](C)[C@@H](O)[C@H]1C(=O)N[C@@H](CC)C(=O)N(C)CC(=O)N(C)[C@@H](Cc2ccccc2)C(=O)N[C@@H](CC(C)C)C(=O)N(C)[C@@H](C)C(=O)N[C@@H](C)C(=O)N[C@H](C)C(=O)N(C)[C@@H](CC(C)C)C(=O)N(C)[C@@H](CC(C)C)C(=O)N(C)[C@@H](C(C)C)C(=O)N1C [Compound C12] (cyclo([MeBmt][Abu][Sar][NMeF]L[NMeA]A[dA][NMeL][NMeL][NMeV]))	3.22%	< 2000 nM	96.78%
C/C=C/C[C@@H](C)[C@@H](O)[C@H]1C(=O)N[C@@H](CC)C(=O)N(C)CC(=O)N(C)CC(=O)N[C@@H](CC(C)C)C(=O)N(C)[C@@H](C)C(=O)N[C@@H](C)C(=O)N[C@H](C)C(=O)N(C)[C@@H](CC(C)C)C(=O)N(C)[C@@H](CC(C)C)C(=O)N(C)[C@@H](C(C)C)C(=O)N1C [Compound C13] (cyclo([MeBmt][Abu][Sar][Sar]L[NMeA]A[dA][NMeL][NMeL][NMeV]))	2.70%	< 2000 nM	97.30%

More lines, now with the values ahead:

% signal	IC50	% inhibition of CsA binding to Cyclophilin A	Structure (SMILES)
9.36%	< 2000 nM	–	C/C=C/C[C@@H](C)[C@@H](O)[C@H]1C(=O)N[C@@H](CC)C(=O)N(C)CC(=O)N(C)[C@@H](CC(C)C)C(=O)N[C@@H](CC(C)C)C(=O)N(C)[C@@H](C)C(=O)N[C@@H](C)C(=O)N[C@H](C)C(=O)N(C)[C@@H](CC(C)C)C(=O)N(C)[C@@H](CC(C)C)C(=O)N(C)[C@@H](C(C)C)C(=O)N1C [Compound C14] (cyclo([MeBmt][Abu][Sar][NMeL]L[NMeA]A[dA][NMeL][NMeL][NMeV]))
2.93%	< 2000 nM	97.07%	C/C=C/C[C@@H](C)[C@@H](O)[C@H]1C(=O)N[C@@H](CC)C(=O)N(C)CC(=O)N(C)[C@@H]([C@@H](C)O)C(=O)N[C@@H](CC(C)C)C(=O)N(C)[C@@H](C)C(=O)N[C@@H](C)C(=O)N[C@H](C)C(=O)N(C)[C@@H](CC(C)C)C(=O)N(C)[C@@H](CC(C)C)C(=O)N(C)[C@@H](C(C)C)C(=O)N1C [Compound C15] (cyclo([MeBmt][Abu][Sar][NMeT]L[NMeA]A[dA][NMeL][NMeL][NMeV]))
2.56%	< 2000 nM	97.44%	C/C=C/C[C@@H](C)[C@@H](O)[C@H]1C(=O)N[C@@H](CC)C(=O)N(C)CC(=O)N(C)[C@@H](Cc2ccc(O)cc2)C(=O)N[C@@H](CC(C)C)C(=O)N(C)[C@@H](C)C(=O)N[C@@H](C)C(=O)N[C@H](C)C(=O)N(C)[C@@H](CC(C)C)C(=O)N(C)[C@@H](CC(C)C)C(=O)N(C)[C@@H](C(C)C)C(=O)N1C [Compound C16] (cyclo([MeBmt][Abu][Sar][NMeY]L[NMeA]A[dA][NMeL][NMeL][NMeV]))
17.17%	< 2000 nM	82.83%	C/C=C/C[C@@H](C)[C@@H](O)[C@H]1C(=O)N[C@@H](CC)C(=O)N(C)CC(=O)N(C)[C@@H]([C@@H](C)CC)C(=O)N[C@@H](C)C(=O)N(C)CC(=O)N[C@@H](C)C(=O)N[C@H](C)C(=O)N(C)[C@@H](CC(C)C)C(=O)N(C)[C@@H](CC(C)C)C(=O)N(C)[C@@H](C(C)C)C(=O)N1C [Compound C17] (cyclo([MeBmt][Abu][Sar][NMeI]A[Sar]A[dA][NMeL][NMeL][NMeV]))
2.12%	< 2000 nM	–	C/C=C/C[C@@H](C)[C@@H](O)[C@H]1C(=O)N[C@@H](CC)C(=O)N(C)CC(=O)N(C)[C@@H](C)C(=O)N[C@@H](C)C(=O)N(C)CC(=O)N[C@@H](C)C(=O)N[C@H](C)C(=O)N(C)[C@@H](CC(C)C)C(=O)N(C)[C@@H](CC(C)C)C(=O)N(C)[C@@H](C(C)C)C(=O)N1C [Compound C18] (cyclo([MeBmt][Abu][Sar][NMeA]A[Sar]A[dA][NMeL][NMeL][NMeV]))
16.79%	< 2000 nM	83.21%	C/C=C/C[C@@H](C)[C@@H](O)[C@H]1C(=O)N[C@@H](CC)C(=O)N(C)CC(=O)N(C)[C@H](C)C(=O)N[C@@H](C)C(=O)N(C)CC(=O)N[C@@H](C)C(=O)N[C@H](C)C(=O)N(C)[C@@H](CC(C)C)C(=O)N(C)[C@@H](CC(C)C)C(=O)N(C)[C@@H](C(C)C)C(=O)N1C [Compound C19] (cyclo([MeBmt][Abu][Sar][dNMeA]A[Sar]A[dA][NMeL][NMeL][NMeV]))
